# Source: patent US20090117593A1, “T. Cruzi-derived neurotrophic agents and methods of use therefor” (Tufts University, priority 2006, published 2009)
# Entries after “also recorded” stand apart in the source; their conditions may differ.
# Tests used:
# PC12 cells [1] = format: cell-based; conditions: serum-free RPMI/0.2% BSA, collagen coated dishes, 16-17 hours
# [2] = test system: PC12 cells or Schwann cells; assay: Inhibition of apoptosis of PC12 cells or Schwann cells by synthetic peptides; format: cell-based
# PC12^TrkA cells = assay: Survival of PC12^TrkA cells in serum-free medium (MTT, DAPI); format: cell-based; conditions: peptides 10 μM, PDNF 500 ng/ml, NGF 30 ng/ml, 48 hours to 5 days
# Description: PC12^nnr5 and PC12^TrkA cells were grown in RPMI with 10% FCS and 5% horse serum as described earlier (Green et al., J. Cell Biol. 102:830-843 (1986); Chuenkova and Pereira, Mol. Biol. Cell 11: 1487-1498 (2000)). Two approaches were used to study neurite extension: 1) Plating cells (1×10^5 cells/ml) on plastic wells (LABTECH 16-well slides, Nalge Nunc International, Naperville, Ill.) coated with synthetic peptides (100 μg/ml water, 4° C., overnight) or rat tail collagen (1 mg/ml PBS, 4° C., overnight). 2) Adding peptides in solution to cells plated on uncoated substratum. Cells were grown in 1% FCS-containing RPMI for 72 hours, and reacted with 0.5 mg/ml MTT (3-[4,5-dimethylthiazol-2-yl]-2,5-diphenyltetrazolium bromide) (SIGMA, St. Louis, Mo.) in serum-free medium for 1 hour at 37° C. Light microscopy was used to visualize viable cells (i.e., containing reduced insoluble formazan) with or without extended neurites (>5 μm in length). Cell viability was also determined using the CELLTITER 96 assay (Promega, Madison, Wis.) as follows: Cells, plated at 2×10^5/ml, were treated with peptides in serum-free medium for different times and exposed to CELLTITER 96 Aqueous One Solution for 1 hour at 37° C. 2) Apoptotic cells were identified by staining with DAPI (250 ng/ml) (SIGMA) 48 hours after cells were exposed to serum-free medium with or without additives in solution, as described earlier (Chuenkova and Pereira, Mol. Biol. Cell 11:1487-1498 (2000)). […]
# IL-6 [3] = assay: IL-6 secretion by PBMC (ELISA); format: cell-based, human; conditions: 24 hours
# Description: (§1) Primary cultures of human intestinal microvascular endothelial cells (HIMEC) isolated from normal jejunal mucosa/submucosal tissue were prepared as described (Strong et al., Gastroenterology 114:1244-1256 (1998)). The HIMEC were cultured in fibronectin-coated plasticware in MCDB medium (Sigma) supplemented with 20% FBS, 90 μg/ml heparin and 50 μg/ml endothelial cell growth factor (Sigma). T-24 cells (ATCC Accession No. HTB-4) were cultured in M199 medium supplemented with 10% FBS. PBMC were purified by Ficoll-Paque gradient as described (Current Protocols in Immunology, pp 7.1.1-7.1.2). Vero cells (ATCC Accession No. CCL-81) were grown in RPMI medium with 5% Nu serum and infected with the Silvio X-10/4 of T. cruzi as described previously (Chuenkova et al., J. Exp. Med. 181:1693-1703 (1995)).
# Endothelial cells and T-24 cells were plated on 24-well plates at a density of 1×10^3 cells/well, while peripheral blood mononuclear cells (PBMC) were plated in the similar wells at 1×10^6/well. Triplicat cultures of cells were incubated test agents for a predetermined amount of time. […] Cytokines and chemokines released in the culture supernatants were measured by ELISA assay following the instructions of the manufacturer (Endogen). The cytokines tested were IL-1β, IL-4, IL-8, […], IL-12, IFN-γ, TNF-α, and the chemokines RANTES and MCP-1. Negative controls were cells incubated in medium containing polymixin B at 10 μg/ml, and positive controls were cells incubated with bacterial LPS at the low ng/ml range (for PBMC or HIMEC) or in the μg/ml range for carcinoma T-24 cells. In some experiments, IL-1β or TNFα were used as positive control for cytokine release.
# TR peptides (Table 2) were synthesized at the Tufts Synthesis Facility (Boston, Mass.). Each peptide was purified by HPLC, and the number of amino acids and molecular weight of each peptide verified by mass spectrometry. Peptides were dissolved in growth medium (10% FCS in RPMI) and added at various concentrations to 1×10^6 PBMC/well in 24-well plates. After 24 hours, IL-6 was assayed by ELISA in the conditioned supernatants.
# [4] = test system: primary cultures of rat Schwann cells; conditions: cited from earlier work
# PC12 cells [5] = assay: Protection of PC12 cells from apoptosis induced by trophic factor withdrawal (DAPI, TUNEL); format: cell-based; conditions: serum-free RPMI-1640/0.2% BSA, 17 hours, DAPI or TUNEL
# Text: PC12 cells were obtained from ATCC (Manassas, Va. (Accession No. CRL-1721)) and cultured on collagen-coated dishes in RPMI 1640 supplemented with 10% horse serum and 5% fetal bovine serum (Greene, L., and Tishler, A., Proc. Natl. Acad. Sci. USA, 73:2424-2428 (1976)). For differentiation and survival experiments, cells were washed three times in serum-free RPMI/0.2% BSA, plated in the same medium in collagen-coated plastic dishes at 2×10^5/ml, without and with growth factors, TS, recombinant proteins, synthetic peptides, for the time and concentrations indicated in the Figures.
# Cell staining with 4,6-diamino-2-phenylindole (DAPI). Cells were fixed with 4% formaldehyde in PBS for 5 minutes, washed with PBS, stained with 10 μg/ml DAPI (Sigma) for 2 minutes, washed with PBS, and visualized under UV light using a fluorescent microscope. About 300-400 cells were examined under the microscope to determine the percentage of apoptotic cells.
# Cell DNA nick end labeling (TUNEL) (Gavrieli, Y. et al., J. Cell. Biol., 119:493-501 (1992)) assay was performed using a kit purchased from Boehringer Mannheim as described by the manufacturer.
# Protection against apoptosis of PC12 cells in serum-free medium containing a test agent (agent N) (e.g., protection induced by TS, TS fragments, NGF or other growth factors), was calculated by the formula: 100%−[(apoptosis(%) of cells kept in RPMI containing test agent N÷apoptosis (%) of cells kept in RPMI)×100%]. Testing the effect of Wortmannin (Sigma) and LY294002 (Sigma) in inhibiting the neuroprotection of TS was performed following the protocol described by others (Yao, R., and Cooper, G., Science, 267:2003-2006 (1995); D'Mello, et al., J. Neurosci., 17:1548-1560 (1997)). In brief, PC12 cells were switched from growth medium to RPMI without and with TS or various other growth factors. After 24 hours, Wortmannin and LY294002 were added to the cultures. After another 24 hours, cells were examined for apoptosis by the DAPI assay, as above.
# Erk1/2 = Erk1/2 phosphorylation in PC12 cells; format: cell-based; conditions: 5 minutes; control peptides 10 μM
# Description: Activation state of TrkA, Erk1/2 and Akt kinases and transcription factor CREB was analyzed by assessing phosphorylation by Western blot with appropriate phospho-specific antibodies. For this, cells were plated in complete medium at a density of 3×10^5 cells/ml overnight on 6-well plates (BECTON DICKINSON LABWARE, Franklin Lakes, N.J.). The medium was changed to serum-free medium and the cells cultured for an additional 24 hours to reduce background phosphorylation. […] Antibody reaction was visualized by horseradish peroxidase (HRP)-conjugated secondary antibody and enhanced chemiluminescence kit (ECL). Some blots were stripped in appropriate buffer (50 mM Tris HCl, pH 7.8, 2% SDS, 1% β-mercaptoethanol) at 50° C. for 60 minutes and re-probed with p42/44MAPK, Akt or CREB antibody to ensure equal loading of proteins. For immunoprecipitation experiments, cell lysates were pre-adsorbed on protein G-Sepharose for 1 hour at 4° C. and after brief centrifugation supernatants were incubated with anti-TrkA antibody for 24 hours at 4° C. with gentle rocking. Formed immunocomplexes were captured on protein G-Sepharose, eluted with SDS-PAGE sample buffer and analyzed by immunoblotting with antibody against phospho-TrkA receptor.
# IL-6 [6] = assay: IL-6 secretion by HIMEC (ELISA); format: cell-based, human; conditions: 24 hours
# Description: as §1
# Endothelial cells and T-24 cells were plated on 24-well plates at a density of 1×10^3 cells/well, while peripheral blood mononuclear cells (PBMC) were plated in the similar wells at 1×10^6/well. Triplicat cultures of cells were incubated test agents for a predetermined amount of time. […] Cytokines and chemokines released in the culture supernatants were measured by ELISA assay following the instructions of the manufacturer (Endogen). The cytokines tested were IL-1β, IL-4, IL-8, IL-1, IL-12, IFN-γ, TNF-α, and the chemokines RANTES and MCP-1. […]
# IL-6 [7] = assay: IL-6 secretion by normal human neutrophils; format: cell-based
Substance,neurite outgrowth in PC12 cells (PC12 cells [1]),effect of PI-3 kinase inhibitor LY294002 on the apoptosis suppressing effect of the peptide [2],suppression of apoptosis of PC12 cells or Schwann cells [2],IL-6 secretion by PBMC (IL-6 [3]),also measured
RQRLPKRMGGSYRCVNASTAH [CFN1],had direct neurotrophic activity,inhibited by the PI-3 kinase inhibitor LY294002,potent suppressors of apoptosis,–,–
YSVDDGETWE [peptide B2],did not induce neurite outgrowth; also recorded: did not promote neurite outgrowth,–,did not inhibit apoptosis,–,survival of PC12^TrkA cells in serum-free medium (PC12^TrkA cells; listed as BR): inactive; also recorded: did not significantly promoted cell survival
GNASQNYWEDAYRC [CYN2],–,inhibited by the PI-3 kinase inhibitor LY294002,suppressed apoptosis but was less active,–,–
DSSAHGAPSTPADSSAHGTPSTPVDSSAHGTPSTPADSSAHSTPSTPA [TR4],–,–,–,active in promoting IL-6 release,–
DSSAHGAPSTPADSSAHGTPSTPVDSSAHGTPSTPADSSAHSTPSTPADSSAHSTPSTPA [TR5],–,–,–,active in promoting IL-6 release,–
lysophosphatidic acid,–,–,–,–,dose reported to be active as Schwann cell survival factor [4]: ≥ 10 nM
RQRLPKRMGGSYRC [peptide C14],had direct neurotrophic activity; also recorded: induce dose dependent outgrowth of neurites,inhibited by the PI-3 kinase inhibitor LY294002,potent suppressors of apoptosis,–,protection of PC12 cells from apoptosis induced by trophic factor withdrawal (PC12 cells [5]): protected PC12 cells from apoptosis
VNASTAN [peptide CYFN],–,inhibited by the PI-3 kinase inhibitor LY294002,did not inhibit apoptosis,–,survival of PC12^TrkA cells in serum-free medium (PC12^TrkA cells): did not significantly promoted cell survival; Erk1/2 phosphorylation in PC12 cells (Erk1/2): did not activate Erk
QPLRRQRVVVVPLSPRLVLLAFCRQRLPLKRMGGSYRCVNASTAN [peptide C44],had direct neurotrophic activity; also recorded: induce dose dependent outgrowth of neurites,inhibited by the PI-3 kinase inhibitor LY294002,potent suppressors of apoptosis,–,protection of PC12 cells from apoptosis induced by trophic factor withdrawal (PC12 cells [5]): protected PC12 cells from apoptosis
VCNA: neuraminidase from Vibrio cholera [reference compound],did not induce neurite outgrowth; also recorded: does not induce neurite outgrowth,–,–,–,protection of PC12 cells from apoptosis induced by trophic factor withdrawal (PC12 cells [5]): did not; IL-6 secretion by HIMEC (IL-6 [6]): did not stimulate detectable IL-6 secretion
TNF-α,–,–,–,–,IL-6 production by normal human neutrophils (IL-6 [7]): did elicit secretion of IL-6
DSSAHGAPSTPADSSAHGTPSTPV [TR2],–,–,–,less active,–
DSSAHGAPSTPA [peptide TR1],–,–,–,less active,–
DSSAHGAPSTPADSSAHGTPSTPVDSSAHGTPSTPA [TR3],–,–,–,less active,–
